Results on twelve molecules are retold here after patent US10633419B2, “Immunomodulators” (BRISTOL-MYERS SQUIBB COMPANY, priority 2014, dated 2020).

Starred links: 1 amine or outer side, 2 acyl side, 3 side chain; linkers in the order of their positions; H or OH if unused. Positions of bridges follow the written chain, without caps; N, C: chain ends. Non-standard residues stand in square brackets, D forms with d. Residues, ends and D or L forms follow the SMILES beside them. Groups on a side chain read outwards from the residue. *: point of attachment. X12 = O=C(O)CCCCCCCCCCCCCCCCCCC(=O)N[C@@H](CCC(=O)NCCCOCCOCCOCCCN*)C(=O)O; X6 = O=C(O)CCCCCCCCCCCCCCCCC(=O)N[C@@H](CCC(=O)NCCCOCCOCCOCCCN*)C(=O)O; Trp(1-CH2COOH) = N[C@@H](Cc1cn(CC(=O)O)c2ccccc12)C(=O)O; X14 = O=C(O)CCCCCCCCCCNC(=O)CCC(=O)NCCCOCCOCCOCCCN*; X9 = O=C(O)CCCCCCCCCCCCCCCCC(=O)N[C@@H](CCN*)C(=O)O; C18 diacid = O=C(O)CCCCCCCCCCCCCCCCC(=O)*; Phe(4-F) = N[C@@H](Cc1ccc(F)cc1)C(=O)O; γGlu = O=C(O)[C@H](CCC(=O)[*:2])N[*:1]; d(cisHyp) = O=C(O)[C@H]1C[C@@H](O)CN1; βAsp = O=C(O)[C@H](CC(=O)[*:2])N[*:1]; Ethylenediamine = C(CN[*:2])N[*:1]; Hyp = O=C(O)[C@@H]1C[C@@H](O)CN1; Undecanoyl = CCCCCCCCCCC(=O)*; NMeNle = CCCC[C@H](NC)C(=O)O; Pip = O=C(O)[C@@H]1CCCCN1; NMeA = CN[C@@H](C)C(=O)O; Pra = C#CC[C@H](N)C(=O)O; Aun = NCCCCCCCCCCC(=O)O; Dab = NCC[C@H](N)C(=O)O; Dap = NC[C@H](N)C(=O)O; PEG1 = NCCOCCC(=O)O

The target of one experiment is T1, PD-L1 (Homo sapiens, UniProt Q9NZQ7).
T1 construct: hPDL1(19-239)-TVMV-His; made in house; host or cells: HEK293T
T1 sequence (Q9NZQ7 with tags, fused parts or gaps): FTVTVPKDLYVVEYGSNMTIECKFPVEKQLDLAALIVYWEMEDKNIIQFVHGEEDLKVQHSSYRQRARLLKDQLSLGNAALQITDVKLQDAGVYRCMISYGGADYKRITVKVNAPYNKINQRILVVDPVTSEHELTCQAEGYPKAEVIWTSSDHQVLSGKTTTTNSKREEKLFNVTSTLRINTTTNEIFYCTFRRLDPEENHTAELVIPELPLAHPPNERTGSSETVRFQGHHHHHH
The experiment can be described thus: PD-1/PD-L1 Homogenous Time-Resolved Fluorescence (HTRF) binding assay (PD-1-Ig/PD-L1-His).
Conditions: not given
In short, it runs like this:
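Inhibitors pre-incubated 15 min with PD-L1-His (10 nM final), then PD-1-Ig (20 nM final) added for 15 min in dPBS/0.1% BSA/0.05% Tween-20. Eu-cryptate anti-Ig (1 nM) and APC anti-His (20 nM) added, 30 min equilibration, 665/620 nm HTRF ratio read.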
Background: TR-FRET usually uses a lanthanide donor and a delayed reading to cut background.
On to `CCCC[C@H]1C(=O)N(C)[C@@H](CCCC)C(=O)N[C@@H](CCC(=O)O)C(=O)N[C@H](C(=O)NCC(=O)N[C@@H](Cc2cn(CCOCCOCCOCCOC(=O)CCC(=O)Oc3c(C)c(C)c4c(c3C)CC[C@@](C)(CCC[C@H](C)CCC[C@H](C)CCCC(C)C)O4)nn2)C(=O)NCC(N)=O)CSCC(=O)N[C@@H](Cc2ccc(O)cc2)C(=O)N(C)[C@@H](C)C(=O)N[C@@H](CC(=O)O)C(=O)N2CCC[C@H]2C(=O)N[C@@H](Cc2c[nH]cn2)C(=O)N[C@@H](CCCCN)C(=O)N2C[C@H](O)C[C@H]2C(=O)N[C@@H](Cc2c[nH]c3ccccc23)C(=O)N[C@@H](CCCCN)C(=O)N[C@@H](Cc2c[nH]c3ccccc23)C(=O)N1C` [Example 14060], for which the IC50 was 100 to 1600 nM.

The experiment is the same for the next values; noted with them: inhibition of PD-1-Ig binding to PD-L1-TVMV-His; value given as number; read-out: HTRF IC50.
As for `CCCCCCCCCCC(=O)NCCCC[C@H](NC(=O)[C@H](CC(=O)O)NC(=O)CNC(=O)CNC(=O)CNC(=O)[C@@H]1CSCC(=O)N[C@@H](Cc2ccc(O)cc2)C(=O)N(C)[C@@H](C)C(=O)N[C@@H](CC(N)=O)C(=O)N2CCC[C@H]2C(=O)N[C@@H](CCN)C(=O)N[C@@H](CC(C)C)C(=O)N2C[C@H](O)C[C@H]2C(=O)N[C@@H](Cc2c[nH]c3ccccc23)C(=O)N[C@@H](CO)C(=O)N[C@@H](Cc2c[nH]c3ccccc23)C(=O)N(C)[C@@H](CCCC)C(=O)N(C)[C@@H](CCCC)C(=O)N[C@@H](CCCNC(=N)N)C(=O)N1)C(N)=O` [Example 11003] ({CH2CO}-Y[NMeA]NP[Dab]L[Hyp]WSW[NMeNle][NMeNle]RCGGGDK(Undecanoyl)-NH2; thioether N-14), the IC50 was found to be 54.6 nM.

Staying with this experiment, now noted: inhibition of PD-1-Ig binding to PD-L1-TVMV-His; value given as range class; read-out: HTRF IC50.
For the molecule `CCCC[C@H]1C(=O)N(C)[C@@H](CCCC)C(=O)N[C@@H](CC(C)C)C(=O)N[C@H](C(=O)NCC(=O)N[C@@H](Cc2cn(CCOCCOCCOCCOCCOCCOCCOCCOCCOCCOCCOCCNC(=O)CC[C@H](NC(=O)CCCCCCCCCCCCCCCCC(=O)O)C(=O)O)nn2)C(=O)O)CSCC(=O)N[C@@H](Cc2ccc(O)cc2)C(=O)N2CCCC[C@H]2C(=O)N[C@@H](CC(N)=O)C(=O)N2CCC[C@H]2C(=O)N[C@@H](CNC)C(=O)N[C@@H](CC(C)C)C(=O)N2C[C@H](O)C[C@H]2C(=O)N[C@@H](Cc2c[nH]c3ccccc23)C(=O)N[C@@H](CCN)C(=O)N[C@@H](Cc2cn(CC(=O)O)c3ccccc23)C(=O)N1C` [Example 14105], the IC50 was 100 to 1600 nM.

Turning to `C#CC[C@H](NC(=O)CNC(=O)CNC(=O)[C@@H]1CSCC(=O)N[C@@H](Cc2ccc(O)cc2)C(=O)N(C)[C@@H](C)C(=O)N[C@@H](CC(N)=O)C(=O)N2CCC[C@H]2C(=O)N[C@@H](CN)C(=O)N[C@@H](CC(C)C)C(=O)N2C[C@H](O)C[C@H]2C(=O)N[C@@H](Cc2c[nH]c3ccccc23)C(=O)N[C@@H](CCN)C(=O)N[C@@H](Cc2cn(CC(=O)O)c3ccccc23)C(=O)N(C)[C@@H](CCCC)C(=O)N(C)[C@@H](CCCC)C(=O)N[C@@H](CC(C)C)C(=O)N1)C(=O)O` [INT130AA] ({CH2CO}-Y[NMeA]NP[Dap]L[Hyp]W[Dab][Trp(1-CH2COOH)][NMeNle][NMeNle]LCGG[Pra]-OH; thioether N-14), the IC50 fell in the range of 10 to 99 nM.

Consider `C#CC[C@H](NC(=O)CNC(=O)[C@@H]1CSCC(=O)N[C@@H](Cc2ccc(O)cc2)C(=O)N(C)[C@@H](C)C(=O)N[C@@H](CC(=O)O)C(=O)N2CCC[C@H]2C(=O)N[C@@H](Cc2c[nH]cn2)C(=O)N[C@@H](CCCCN)C(=O)N2C[C@H](O)C[C@H]2C(=O)N[C@@H](Cc2c[nH]c3ccccc23)C(=O)N[C@@H](CCCCN)C(=O)N[C@@H](Cc2c[nH]c3ccccc23)C(=O)N(C)[C@@H](CCCC)C(=O)N(C)[C@@H](CCCC)C(=O)N[C@@H](CCC(=O)O)C(=O)N1)C(N)=O` [INT 1400F, ClAc-Tyr-mAla-Asp-Pro-His-Lys-Hyp-Trp-Lys-Trp-mNle-mNle-Glu-Cys-Gly-[(S)-propargylglycine]] ({CH2CO}-Y[NMeA]DPHK[Hyp]WKW[NMeNle][NMeNle]ECG[Pra]-NH2; thioether N-14), for which the IC50 was 0.3 to 9.9 nM.

On to `CCCC[C@H]1C(=O)N(C)[C@@H](CCCC)C(=O)N[C@@H](CC(C)C)C(=O)N[C@H](C(=O)NCCCCCCCCCCC(=O)N[C@@H](CCC(=O)O)C(=O)O)CSCC(=O)N[C@@H](Cc2ccc(O)cc2)C(=O)N(C)[C@@H](C)C(=O)N[C@@H](CC(N)=O)C(=O)N2CCC[C@H]2C(=O)N[C@@H](CN)C(=O)N[C@@H](CCC(N)=O)C(=O)N2C[C@H](O)C[C@H]2C(=O)N[C@@H](Cc2c[nH]c3ccccc23)C(=O)N[C@@H](CO)C(=O)N[C@@H](Cc2cn(CC(=O)O)c3ccccc23)C(=O)N1C` [Example 11132] ({CH2CO}-Y[NMeA]NP[Dap]Q[Hyp]WS[Trp(1-CH2COOH)][NMeNle][NMeNle]LC[Aun]E-OH; thioether N-14), for which the IC50 lay within 10 to 99 nM.

`CCCC[C@H]1C(=O)N(C)[C@@H](CCCC)C(=O)N[C@@H](CC(C)C)C(=O)N[C@H](C(=O)NCC(=O)N[C@@H](CCC(=O)NCCCOCCOCCOCCCNC(=O)CC[C@H](NC(=O)CCCCCCCCCCCCCCCCC(=O)O)C(=O)O)C(=O)O)CSCC(=O)N[C@@H](Cc2ccc(F)cc2)C(=O)N2CCCC[C@H]2C(=O)N[C@@H](CC(=O)O)C(=O)N2CCC[C@H]2C(=O)N[C@@H](CN)C(=O)N[C@@H](CCC(=O)O)C(=O)N2C[C@H](O)C[C@H]2C(=O)N[C@@H](Cc2c[nH]c3ccccc23)C(=O)N[C@@H](CCN)C(=O)N[C@@H](Cc2cn(CC(=O)O)c3ccccc23)C(=O)N1C` [Example 11263] ({CH2CO}-[Phe(4-F)][Pip]DP[Dap]E[Hyp]W[Dab][Trp(1-CH2COOH)][NMeNle][NMeNle]LCGE(X6)-OH; thioether N-14): the IC50 lay within 0.3 to 9.9 nM.

On to `CCCC[C@H]1C(=O)N(C)[C@@H](CCCC)C(=O)N[C@@H](CCC(=O)O)C(=O)N[C@H](C(=O)NCCCOCCOCCOCCCNC(=O)CCC(=O)NCCCCCCCCCCC(=O)O)CSCC(=O)N[C@@H](Cc2ccc(O)cc2)C(=O)N(C)[C@@H](C)C(=O)N[C@@H](CC(=O)O)C(=O)N2CCC[C@H]2C(=O)N[C@@H](CN)C(=O)N[C@@H](CC(C)C)C(=O)N2C[C@H](O)C[C@@H]2C(=O)N[C@@H](Cc2c[nH]c3ccccc23)C(=O)N[C@@H](CCN)C(=O)N[C@@H](Cc2cn(CC(=O)O)c3ccccc23)C(=O)N1C` [Example 11145] ({CH2CO}-Y[NMeA]DP[Dap]L[d(cisHyp)]W[Dab][Trp(1-CH2COOH)][NMeNle][NMeNle]EC-X14; thioether N-14), for which the IC50 is 0.3 to 9.9 nM.

As to `CCCC[C@H]1C(=O)N(C)[C@@H](CCCC)C(=O)N[C@@H](CC(C)C)C(=O)N[C@H](C(=O)NCC(=O)N[C@@H](CCC(=O)NCCNC(=O)CC[C@H](NC(=O)CCCCCCCCCCCCCCCCC(=O)O)C(=O)O)C(=O)O)CSCC(=O)N[C@@H](Cc2ccc(F)cc2)C(=O)N2CCCC[C@H]2C(=O)N[C@@H](CC(=O)O)C(=O)N2CCC[C@H]2C(=O)N[C@@H](CN)C(=O)N[C@@H](CC(C)C)C(=O)N2C[C@H](O)C[C@H]2C(=O)N[C@@H](Cc2c[nH]c3ccccc23)C(=O)N[C@@H](CCN)C(=O)N[C@@H](Cc2cn(CC(=O)O)c3ccccc23)C(=O)N1C` [Example 14123] ({CH2CO}-[Phe(4-F)][Pip]DP[Dap]L[Hyp]W[Dab][Trp(1-CH2COOH)][NMeNle][NMeNle]LCGE([Ethylenediamine-γGlu-C18 diacid])-OH; thioether N-14), the IC50 was in the range of 0.3 to 9.9 nM.

With `CCCC[C@H]1C(=O)N(C)[C@@H](CCCC)C(=O)N[C@@H](CC(C)C)C(=O)N[C@H](C(=O)NCC(=O)N[C@@H](CC(=O)NCCOCCC(=O)NCC[C@H](NC(=O)CCCCCCCCCCCCCCCCC(=O)O)C(=O)O)C(=O)O)CSCC(=O)N[C@@H](Cc2ccc(O)cc2)C(=O)N2CCCC[C@H]2C(=O)N[C@@H](CC(N)=O)C(=O)N2CCC[C@H]2C(=O)N[C@@H](CN)C(=O)N[C@@H](CC(C)C)C(=O)N2C[C@H](O)C[C@H]2C(=O)N[C@@H](Cc2c[nH]c3ccccc23)C(=O)N[C@@H](CCN)C(=O)N[C@@H](Cc2cn(CC(=O)O)c3ccccc23)C(=O)N1C` [Example 13161] ({CH2CO}-Y[Pip]NP[Dap]L[Hyp]W[Dab][Trp(1-CH2COOH)][NMeNle][NMeNle]LCG[βAsp][PEG1]-X9; thioether N-14), the IC50 fell in the range of 0.3 to 9.9 nM.

`CCCC[C@H]1C(=O)N(C)[C@@H](CCCC)C(=O)N[C@@H](CC(C)C)C(=O)N[C@H](C(=O)NCC(=O)N[C@@H](Cc2cn(CC[C@H](NC(=O)CCCCCCCCCCCCCCCCC(=O)O)C(=O)O)nn2)C(=O)O)CSCC(=O)N[C@@H](Cc2ccc(O)cc2)C(=O)N2CCCC[C@H]2C(=O)N[C@@H](CC(N)=O)C(=O)N2CCC[C@H]2C(=O)N[C@@H](CNC)C(=O)N[C@@H](CC(C)C)C(=O)N2C[C@H](O)C[C@H]2C(=O)N[C@@H](Cc2c[nH]c3ccccc23)C(=O)N[C@@H](CCN)C(=O)N[C@@H](Cc2cn(CC(=O)O)c3ccccc23)C(=O)N1C` [Example 13133]: the IC50 is 0.3 to 9.9 nM.

As for `CCCC[C@H]1C(=O)N(C)[C@@H](CCCC)C(=O)N[C@@H](CC(C)C)C(=O)N[C@H](C(=O)NCC(=O)N[C@@H](CCC(=O)O)C(=O)NCCCOCCOCCOCCCNC(=O)CC[C@H](NC(=O)CCCCCCCCCCCCCCCCCCC(=O)O)C(=O)O)CSCC(=O)N[C@@H](Cc2ccc(O)cc2)C(=O)N(C)[C@@H](C)C(=O)N[C@@H](CC(N)=O)C(=O)N2CCC[C@H]2C(=O)N[C@@H](CN)C(=O)N[C@@H](CC(C)C)C(=O)N2C[C@H](O)C[C@H]2C(=O)N[C@@H](Cc2c[nH]c3ccccc23)C(=O)N[C@@H](CCN)C(=O)N[C@@H](Cc2cn(CC(=O)O)c3ccccc23)C(=O)N1C` [Example 11226] ({CH2CO}-Y[NMeA]NP[Dap]L[Hyp]W[Dab][Trp(1-CH2COOH)][NMeNle][NMeNle]LCGE-X12; thioether N-14), the IC50 was in the range of 0.3 to 9.9 nM.

For orientation: IC50 means the concentration that gives 50% inhibition.
